Measured values reported in US5162304A, “Pharmaceutical compositions and methods for treatment and prophylaxis of cancer” (priority 1990, dated 1992).
“And” between values parts separate entries of the source, which are not always exact repeats. Equal entries are not always repeated.

Assays:
[1] = tested on: Ehrlich's mouse ascites carcinoma cells; assay: Test 3: growth of Ehrlich's mouse ascites carcinoma cells; assay type: cell-based; settings: for tumor growth suppressing effect: Ehrlich's cells; for activity at 10 µM: Mus musculus, Ehrlich, 120 h, 5-day treatment at 10 μM, read-out: growth suppressed to
Protocol: (§1) 14-methyl-1-pentadecanol and 18-methyl-1-nonadecanol were tested for tumor growth suppressing effects on three different tumor cell strains (Ehrlich's mouse ascites carcinoma cells, human lung carcinoma A549 cells and mouse neuroblastoma NAs-1 cells).
These isomonools suppressed the growth of Ehrlich's ascites carcinoma cells to 4.5×10^-3 and 1.5×10^-2, respectively, by 5-day treatment at 10 μM.

bladder mucous membrane = assay: Test 10: pathological changes in bladder mucous membrane after BBN and sodium erythorbate; assay type: in vivo, male F344 rats; settings: 250 mg/kg in feed; for Number of animals with cancer / Number of animals with papilloma / Number of animals with papillary or tuberous hyperplasia: 28 observed; for Number of animals with cancer: unadministered 19 of 27; for Number of animals with papilloma: unadministered 20 of 27; for Number of animals with papillary or tuberous hyperplasia: unadministered 27 of 27; for Cancer, incidence: unadministered 70; for Papilloma, incidence: unadministered 74; for Papillary or tuberous hyperplasia, incidence: unadministered 100
Text: 5 groups of 6-week old male F344 rats were givn 0.05% (by weight. The definition is to be followed hereinafter) aqueous solution of N-butyl-N-(4-hydroxybutyl)nitrosoamine (BBN: bladder carcinogenic compound), as an initiator, by water supplying bottles for 4 weeks.

[2] = tested on: mouse neuroblastoma NAs-1 cells; assay: Test 3: growth of mouse neuroblastoma NAs-1 cells; assay type: cell-based; settings: for tumor growth suppressing effect: NAs-1 cells; for growth suppressed to: treatment conditions not given
Protocol: as §1
The growth of mouse neuroblastoma NAs-1 cells was suppressed to 7.8×10^-3 and 6.5×10^-3, respectively.

[3] = tested on: human lung carcinoma A549 cells; assay: Test 3: colony formation of human lung carcinoma A549 cells; assay type: cell-based; settings: for tumor growth suppressing effect: A549 cells; for activity at 10 µM: Homo sapiens, A549, 6-hour treatment at 10 μM, read-out: colony formation rate
Protocol: as §1
These isomonools suppressed the colony formation rate of human lung A549 cells to 2.2×10^-3 and 4.1×10^-3, respectively, by 6-hour treatment at 10 μM.

adenocarcinoma 755 cells = assay: Test 2: tumor growth suppression in mice inoculated with adenocarcinoma 755 cells; assay type: in vivo, F1 mongrel mice of C57BL/6 and DBA/2; settings: s.c., 10 mg/kg/day for 5 days; 10 days after inoculation; control 6.5
Text: 6-week old F1 mongrel mice of C57BL/6 and DBA/2 were inoculated under back skin with 10^6 adenocarcinoma 755 cells. […] The animals were sacrificed 10 days after the inoculation with adenocarcinoma 755 cells, and the tumor was excised.

stomach carcinoma = assay: Test 9: stomach carcinoma after MNNG; assay type: in vivo, male Wistar rats; settings: for Cause of death (per animal): 250 mg/kg feed orally; for Histological classification (per animal) / Borrmann's Classification (per animal): 250 mg/kg feed orally for 126 days after MNNG; for Borrmann's Classification (per animal): gross observation; for Survival time (per animal): 250 mg/kg feed, 337 = day of sacrifice
Protocol: 40 male Wistar rats (8-9-week old, body weight; 110 g) were given a drinking water containing 167 μg/ml of N-methyl-N'-nitro-N-nitrosoguanidine (MNNG: a carcinogenic compound) and a feed (dry pellets CE-2, produced by CLEA JAPAN) for 210 days.
The rats were allotted to 5 groups and treated as follows since the 211th day.
Administered group A: n=8. The compound A of the present invention (See below. The definition is to be followed hereinafter) was administered orally in an amount of 250 mg/kg feed for 126 consecutive days.
Administered group B: n=8. The compound B of the present invention was administered orally in an amount of 250 mg/kg feed for 126 consecutive days.
Administered group C: n=8. The compound C of the present invention was administered orally in an amount of 250 mg/kg feed for 126 consecutive days.
Administered group D: n=8. The compound D of the present invention was administered orally in an amount of 250 mg/kg feed for 126 consecutive days.
On the 337th day, the survining rats were sacrificed and the stomachs were (1) subjected to Borrmann's classification according to gross observation and (2) histologically observed (haematoxylin-eosin stain or ASAN stain), and then classified as follows.

[4] = tested on: Ehrlich's mouse ascites carcinoma cells; assay: Test 7 and Comparing Tests 3 and 4: survival of mice inoculated with Ehrlich's mouse ascites carcinoma cells; assay type: in vivo, male C57BL/6 mice; settings: bleomycin + isomonool; for Number of surviving mice: of 8
Protocol: 5-week old male C57BL/6 mice were intraperitoneally inoculated with 10^6 Ehrlich's mouse ascites carcinoma cells. Since 24 hours later, a 50 μg/ml solution of bleomycin in 0.25% HCO-60 solution in physiological saline, and a suspension containing 50 μg/ml of bleomycin and 5 μg/ml of 14-methyl-1-pentadecanol were intraperitoneally injected at a dose of 10 mg/kg·day and 11 mg/kg·day, respectively, to each 8 animals/group for 5 days. The survival time of the injected mice was then followed.

[5] = Carcinostatic, carcinostasis-reinforcing and carcinogenesis-preventing activities (general statement)
[6] = tested on: Ehrlich's ascites carcinoma cells; assay: Test 1: survival of mice inoculated with Ehrlich's ascites carcinoma cells; assay type: in vivo, ddY mice; settings: i.p., 10 mg/kg/day for 5 days, from 24 hours after inoculation
Protocol: 5-week old ddY mice were intraperitoneally inoculated with 10^6 Ehrlich's ascites carcinoma cells. Since 24 hours later, 50 mg/ml suspension of a test compound in 0.25% (% by weight. The definition is to be followed hereinafter) solution of Pluronic F68 in physiological saline was intraperitoneally injected to 10 animals/group at a dose of 10 mg/kg/day for 5 days.

Ehrlich's ascites cells = assay: Test 6 and Comparing Test 2: uptake of bleomycin into Ehrlich's ascites cells; assay type: cell-based, mouse; settings: bleomycin 60 μg/ml + isomonool 0.05 μM
Protocol: The amount of bleomycin taken up into Ehrlich's ascites cells was determined as a function of time in the case where bleomycin (60 μg/ml) was used in combination with 14-methyl-1-pentadecanol (0.05 μM).

mammary cancer = assay: Test 8: prevention of DMBA-induced mammary cancer; assay type: in vivo, female SD rats; settings: DMBA 5 mg/body, 20 weeks, unadministered 15/30
Protocol: 6-week old female SD rats (n=90) were treated as follows using 14-methyl-1-pentadecanol as a carcinogenesis-preventing agent.
Unadministered group: n=30. MF powder feed (ORIENTAL KOBO K.K.) was given as a basic feed.
Administered group A: n=30. A test feed was given continually (for 7 days). The feed was prepared by admixing the said carcinogenesis-preventing agent (after emulsified in Pluronic F-68) with the abovementioned basic feed in an amount of 50 mg/kg.
Administered group B: n=30. A test feed was given continually (for 7 days). The feed was prepared by admixing the said carcinogenesis-preventing agent (after emulsified in Pluronic F-68) with the abovementioned basic feed in an amount of 250 mg/kg.
After the aforementioned treatment, 5 mg/body of […] (DMBA: a carcinogenic compound) was administered by injecting subcutaneously in mammary gland 0.1 ml/body of a 50 mg/ml benzanthracene solution. Then, each of the aforementioned groups was given corresponding feed for 20 weeks.
After the completion of the treatment, the rats were sacrificed and observed for the occurrence of mammary cancer.

## CC(C)CCCCCCCCCCCCCCCCCO [18-methyl-1-nonadecanol]
[1]
  tumor growth suppressing effect: effective
  activity at 10 µM: 1.5%
Bladder mucous membrane
  Number of animals with cancer: 0
  Number of animals with papilloma: 0
  Number of animals with papillary or tuberous hyperplasia: 2
  Cancer, incidence: 0%
  Papilloma, incidence: 0%
  Papillary or tuberous hyperplasia, incidence: 7%
[2]
  tumor growth suppressing effect: effective
  growth suppressed to: 6.5×10^-3
[3]
  tumor growth suppressing effect: effective
  activity at 10 µM: 0.41%

## CCC(C)CCCCCCCCCCCCCCCO (centres unmarked) [16-methyl-1-octadecanol]
Adenocarcinoma 755 cells
  mean tumor weight: 2.3 g
Stomach carcinoma
  Cause of death (per animal): dead in cage
  Histological classification (per animal): I and 0 and I-II
  Borrmann's Classification (per animal): 0
  Survival time (per animal): 301 days and 312 days and 337 days

## CC(C)CCCCCCCCCCCCCCCO [16-methyl-1-heptadecanol]
Bladder mucous membrane
  Number of animals with cancer: 0
  Number of animals with papilloma: 0
  Number of animals with papillary or tuberous hyperplasia: 1
  Cancer, incidence: 0%
  Papilloma, incidence: 0%
  Papillary or tuberous hyperplasia, incidence: 4%
Adenocarcinoma 755 cells
  mean tumor weight: 1.6 g
Stomach carcinoma
  Cause of death (per animal): dead in cage
  Histological classification (per animal): 0 and I-II
  Borrmann's Classification (per animal): 0
  Survival time (per animal): 305 days and 337 days

## CC(C)CCCCCCCCCCCCCO [14-methyl-1-pentadecanol]
[4]; i.p., 11 mg/kg.day for 5 days (Test 7)
  mean survival time after inoculation: 54.3 days
[4]; day 14
  Number of surviving mice: 8
[4]; day 15
  Number of surviving mice: 8
[4]; day 16
  Number of surviving mice: 8
[4]; day 17
  Number of surviving mice: 8
[4]; day 18
  Number of surviving mice: 8
[4]; day 19
  Number of surviving mice: 8
[4]; day 20
  Number of surviving mice: 8
[4]; day 23
  Number of surviving mice: 8
[4]; day 33
  Number of surviving mice: 8
[4]; day 41
  Number of surviving mice: 8
[4]; day 45
  Number of surviving mice: 6
[4]; day 52
  Number of surviving mice: 4
[4]; day 57
  Number of surviving mice: 4
[4]; day 60
  Number of surviving mice: 4
[1]
  tumor growth suppressing effect: effective
  activity at 10 µM: 0.45%
[2]
  tumor growth suppressing effect: effective
  growth suppressed to: 7.8×10^-3
[5]
  carcinostatic, carcinostasis-reinforcing and carcinogenesis-preventing activities: especially potent in activities
[6]
  mean survival time after inoculation: ≥ 60 days
Ehrlich's ascites cells; 30 min
  Bleomycin uptake: 0.13 μg/mg Ehrlich's cell
Ehrlich's ascites cells; 60 min
  Bleomycin uptake: 0.26 μg/mg Ehrlich's cell
Ehrlich's ascites cells; 120 min
  Bleomycin uptake: 0.39 μg/mg Ehrlich's cell
Ehrlich's ascites cells; 180 min
  Bleomycin uptake: 0.55 μg/mg Ehrlich's cell
Ehrlich's ascites cells; Initial
  Bleomycin uptake: 0 μg/mg Ehrlich's cell
[3]
  tumor growth suppressing effect: effective
  activity at 10 µM: 0.22%
Stomach carcinoma
  Histological classification (per animal): I and 0
  Borrmann's Classification (per animal): 0
  Survival time (per animal): 337 days
Mammary cancer; group A, 50 mg/kg in feed
  Number of animals with mammary cancer/Number of tested animals: 8/30
Mammary cancer; group B, 250 mg/kg in feed
  Number of animals with mammary cancer/Number of tested animals: 4/30

## CCCC(C)CCCCCCCCCCCCCO (centres unmarked) [14-methyl-1-heptadecanol]
Bladder mucous membrane
  Number of animals with cancer: 0
  Number of animals with papilloma: 0
  Number of animals with papillary or tuberous hyperplasia: 0
  Cancer, incidence: 0%
  Papilloma, incidence: 0%
  Papillary or tuberous hyperplasia, incidence: 0%

## CCC(C)CCCCCCCCCCCCCO (centres unmarked) [14-methyl-1-hexadecanol]
Bladder mucous membrane
  Number of animals with cancer: 0
  Number of animals with papilloma: 0
  Number of animals with papillary or tuberous hyperplasia: 0
  Cancer, incidence: 0%
  Papilloma, incidence: 0%
  Papillary or tuberous hyperplasia, incidence: 0%
[5]
  carcinostatic, carcinostasis-reinforcing and carcinogenesis-preventing activities: especially potent in activities
[6]
  mean survival time after inoculation: 57.5 days
Stomach carcinoma
  Histological classification (per animal): I and 0
  Borrmann's Classification (per animal): 0
